Experimental data as given in patent US12304920B2, “Platinum complex, its preparation and therapeutic use” (CITY UNIVERSITY OF HONG KONG, priority 2020, dated 2025).

Experiments:
[1] = test system: Human ovarian A2780 cells; test: MTT cytotoxicity test, A2780; format: cell-based; conditions: 72 h, medium with 1% DMF (no DMF for 3a and 3b)
Experimental: (§1) Human ovarian A2780 and cisplatin-resistant A2780cisR cells were maintained in Roswell Park […] (RPMI) 1640 medium supported with 10% FBS, 2 mM L-glutamine, and 100 unit/mL penicillin/streptomycin. Human lung carcinoma A549 cells, cisplatin-resistant A549cisR cells, and human breast MCF-7 cells were cultured in Dulbecco's Modified Eagle Medium (DMEM) with 10% FBS and 100 units penicillin/streptomycin.
(§2) The viability of cancer cells exposed to the compounds was evaluated by means of MTT assay. Cells were seeded in 96-well plates at a density of 3,000 cells per well and incubated until the cell confluency reached 50%. Then, the medium was removed and replaced with fresh medium containing different concentrations of complexes with 1% DMF. For complex 3a and 3b with A2780, A2780CisR, A549 and A549CisR cells, the medium used for replacement contains no DMF. After 72 h, the medium was changed to serum-free medium containing 1 mg/mL MTT. After 2 h additional incubation, the medium was removed, and DMSO (200 μL) was delivered to each well to dissolve the formed purple formazan. The absorbance at 570 nm and 730 nm of each well was measured using a microplate reader (BioTek PowerWave XS).

[2] = test system: cisplatin-resistant A2780cisR cells; test: MTT cytotoxicity test, A2780cisR; format: cell-based, Human; conditions: 72 h, medium with 1% DMF (no DMF for 3a and 3b)
Experimental: as §1, §2

[3] = test system: Human lung carcinoma A549 cells; test: MTT cytotoxicity test, A549; format: cell-based; conditions: 72 h, medium with 1% DMF (no DMF for 3a and 3b)
Experimental: as §1, §2

[4] = test system: cisplatin-resistant A549cisR cells; test: MTT cytotoxicity test, A549cisR; format: cell-based, Human; conditions: 72 h, medium with 1% DMF (no DMF for 3a and 3b)
Experimental: as §1, §2

human breast MCF-7 cells = test: MTT cytotoxicity test, MCF-7; format: cell-based; conditions: 72 h, medium with 1% DMF
Experimental: as §1, §2

Compound | IC50 [1] | IC50 [2] | IC50 [3] | IC50 [4] | IC50 (human breast MCF-7 cells)
N.N.[Cl][Pt][Cl] [cisplatin, reference compound] | 2.1 ± 0.6 µM | 23 ± 6 µM | 2 ± 0.1 µM | 12 ± 1 µM | 18 ± 3 µM
[Pt(C26H24P2)2]Cl2 [Complex 3a] | 12 ± 3 µM | 5 ± 1 µM | 3.6 ± 0.2 µM | 1.3 ± 0.1 µM | 7 ± 1 µM
[Pt(C54H52P2)]Cl2 [Complex 3b] | 0.23 ± 0.09 µM | 2.6 ± 0.6 µM | 0.48 ± 0.02 µM | 0.07 ± 0.01 µM | 0.2 ± 0.01 µM
t-[Pt(acetato)2(C9H17P)2] [Complex 2a] | 8 ± 1 µM | 7 ± 2 µM | 28 ± 3 µM |  | 7 ± 1 µM
t-[Pt(acetato)2(C17H14NP)2] [Complex 2e] | > 9.4 µM | > 9.4 µM | > 11.1 µM |  | > 9.4 µM
t-[Pt(acetato)2(C18H12Cl3P)2] [Complex 2c] | 4 ± 1 µM | 4 ± 1 µM | 24 ± 7 µM |  | 18 ± 2 µM
t-[Pt(acetato)2(C18H21P)2] [Complex 2d] | > 2.4 µM | > 2.4 µM | > 2.7 µM |  | > 2.4 µM
t-[Pt(acetato)2(C21H21P)2] [Complex 2b] | 4 ± 1 µM | 4 ± 1 µM | 6.1 ± 0.3 µM |  | 4 ± 0.3 µM
t-[Pt(acetato)2(PPh3)2] [Complex 1a] | 4.3 ± 0.6 µM | 3.3 ± 0.8 µM | 3.3 ± 0.6 µM | 5 ± 1 µM | 10 ± 1 µM
t-[Pt(acetato)(benzoato)(PPh3)2] [Complex 1d] | 4.9 ± 0.6 µM | 3.1 ± 0.2 µM | 5 ± 3 µM | 5 ± 1 µM | 
t-[Pt(phthalato)2(PPh3)2] [Complex 1c] | 18 ± 3 µM | 10 ± 2 µM | 7 ± 1 µM | 7 ± 2 µM | 
t-[Pt(succinato)2(PPh3)2] [Complex 1b] | 15 ± 1 µM | 13 ± 1 µM | 5.3 ± 0.6 µM | 8 ± 5 µM | 
t-[Pt(succinato)(benzoato)(PPh3)2] [Complex 1e] | 8 ± 4 µM | 7.2 ± 0.2 µM | 5 ± 0.8 µM | 5 ± 2 µM | 
